The subject of one series is A375 tumor cells. Nature of the series: In vivo anti-cancer activity, subcutaneous A375 tumor in NOD/SCID mice. Particulars: A375 xenograft, 50 mg/kg i.p. qd x 28. The protocol: (§1) In Vivo Anti-Cancer Activities
(§2) A375 (1×10^6 cell/mouse) tumor cells were subcutaneously injected into the right flank of 5 week old male NOD/SCID mice (BioLASCO, Taiwan). Tumor volume was measured with a digital caliper once tumor was palpable (within 10 to 15 days after implantation). Compound treatment was started after 1-3 weeks when the tumors had reached an average volume of ˜50 to 100 mm^3. Mice were divided into 5 groups as listed in Table 6 below and were given intraperitoneal injections with the test compound at 50 mg/kg, or vehicle control (DMSO:Cremophor:PBS (pH 7.4)=[…]) one time every day. The test compound, 58, was formulated in a solution of 5% DMSO, 10% Cremophor, and 85% PBS. The positive control, PLX4032, was dissolved in 100% PBS. Body weights of the mice were measured every two to three days and the tumor sizes in different groups of mice were measured by digital caliper every two to three days.

A short description of series [1]: Body weight of A375 tumor-bearing NOD/SCID mice under treatment. It is filed as in vivo. Conditions: A375 xenograft, 50 mg/kg i.p. qd x 28. The protocol:
as §1, §2

Molecules are shown by their SMILES.

`COc1cc(-c2ccc3ncnc(Nc4cc(O)ccc4F)c3c2)ccc1O` [Compound 58, 4-(4-(2-fluoro-5-hydroxyphenylamino)quinazolin-6-yl)-2-methoxyphenol]: in the series with A375 tumor cells, the “tumor growth in vivo” value is on record as “inhibited tumor growth in vivo”. Moreover, the weight loss entry in series [1] is “without inducing significant weight loss”.

Source of the values: patent US8785459B2, “Quinazoline compounds as kinase inhibitors” (Development Center for Biotechnology, priority 2011, dated 2014).
